Reference: patent US6930130B2, “Citrullimycines, a process for their production and their use as pharmaceuticals” (Aventis Pharma Deutschland GmbH, priority 2000, dated 2005)

Tested on: human neurotensin receptor proteins expressed in HEK cell membranes
Experiment: SPA [3H] neurotensin receptor binding assay
Conditions: displacement of 4 nM [3H]neurotensin, 2 hours, room temperature
From the text: The Citrullimycines according to the invention show inhibition in the neurotensin receptor binding assay of human neurotensin receptor proteins expressed in HEK cell membranes.
SPA [^3H] Neurotensin Receptor Binding Assay
Compounds with an affinity for the neurotensin receptor will displace the binding of [3H] neurotensin, which results in a diminished radioactive signal. In the SPA method, receptors immobilized directly on PVT WGA (Wheat Germ Agglutinin) coated SPA beads (Amersham Pharmacia) bind the radiolabelled ligand. The ligand-receptor complex is held in close enough proximity to stimulate emission of light by the bead. Any unbound radioligand is too distant from the bead to transfer energy and therefore will not be detected.
The samples were pre-diluted 1:5 with assay buffer (50 mM Tris-HCl buffer with 1 mM EDTA, 0.2 mM Bacitracin, and 0.1% BSA, pH 7.4) in deep well plates. The final dilution in the assay was 1:20. 96-well isoplates from Wallac were used for the screening. […]
On each plate, four wells without samples were used to determine the total receptor-ligand binding and another four wells with 1 μM (L-α, γ-diaminobutyryl) neurotensin were used to determine the nonspecific binding respectively. Inhibition activities are expressed as: […]

Question: How did the IC50 turn out when `CCC(C)CCC(O)CC(=O)OC(CCC(C)C)CC(=O)NC(CCCNC(N)=O)C(=O)OC(CCC(C)CC)CC(=O)OC(CCC(C)CC)CC(=O)O` (stereo not shown) [Citrullimycine A] was run?
Answer: Its IC50 is 16 µM.
